The text below walks through data of patent publication US12479974B2, “Composition and method for microbial control for use with polymers” (MICROBAN PRODUCTS COMPANY, priority 2022, dated 2025).

In brackets after ≈: the same amount, converted by molar mass. A value given as a limit tells only on which side of the number the result lay.

For assay [1], the system named is Staphylococcus aureus (gram-positive bacteria). The assay can be described thus: Antimicrobial efficacy of polymer samples, ISO22196 test method. Conditions: GBA alone at more than 4500 ppm in TPU, Table 3 (S. aureus).
The subject of assay [2] is Escherichia coli (gram-negative bacteria). The description is as above.
In another assay the test system is Escherichia coli. The assay can be described thus: Minimum inhibitory concentration (MIC). Format: cell-based. To be noted: against Escherichia coli.
In another assay the test system is Staphylococcus aureus. The assay can be described thus: Minimum inhibitory concentration (MIC). Format: cell-based. Conditions: against Staphylococcus aureus.

For `O=C(O)c1ccccc1` [GBA, benzoic acid], in assay [1], the antimicrobial efficacy result is “did not exhibit antimicrobial efficacy”. Further, in assay [2] (2500 ppm GBA in TPU), the “efficacy against E. coli” value is “no efficacy”. In addition, in assay [2] (4500 ppm GBA alone in TPU, E. coli), the log reduction entry was “less than 1”. The “log reduction (consistent antimicrobial efficacy)” value in assay [2] (5250 ppm level in TPU, E. coli) was > 1.
For the compound `OCCCc1ccccc1` [3-phenylpropanol], the results for the MIC in the assay on Escherichia coli and in the assay with Staphylococcus aureus were 3000 to 4000 µg/mL (≈ 22 to 29.4 mM) and 4000 µg/mL (≈ 29.4 mM), respectively.

A word on the MIC: it is the lowest concentration found to suppress growth. Read a high MIC as a less susceptible organism.
